Read-outs that look alike come from different tables or passages of the source.
Key:
natalizumab [1] = assay: Binding of purified phage clones to natalizumab-coated wells; details: individually amplified and purified phage clones
Method: Mimetope peptides were selected from phage display libraries, some of which contain cysteines flanking the peptide mimetope sequence to increase stability of the peptide through disulfide bond formation. After three rounds of selection with multiple phage display libraries, individual phage plaques were isolated and sequenced.
All of these unique phage clones were individually amplified and purified, and their ability to specifically bind natalizumab-coated wells was assessed. […] Selected peptides derived from validated phage clones were chemically synthesized with an N-terminal acetyl modification (in some cases), C-terminal biotin modification via a terminal lysine (all peptides), and a disulfide bridge between cysteines 2 and 10 or cysteines 8 and 16 by a contract peptide manufacturer, as shown in Table 2.

natalizumab [2] = details: human serum spiked with natalizumab, rituximab, atezolizumab, pembrolizumab, eculizumab
Method: Synthesized peptides were validated for specificity by using them as ELISA capture reagents on neutravidin-coated plates. Briefly, biotinylated peptides were coated on the wells at 100 ug/mL concentration in either tris buffered saline buffer (TBS) or water. […] Antibody that was captured by the peptides was subsequently detected using a goat anti-human IgG-Fc conjugated to horseradish peroxidase (HRP) combined with a colorimetric substrate. […] The percent of recovery was calculated as follow: calibrated concentration/nominal concentration×100.

natalizumab [3] = assay: Competition ELISA between natalizumab-specific VERITOPE and anti-idiotype; format: binding; details: capture reagent versus competitive reagent
Excerpt: In FIG. 11A natalizumab-specific VERITOPE™ is the capture reagent and anti-idiotype is the competitive reagent. In FIG. 11B, anti-idiotype is the capture reagent and natalizumab-specific VERITOPE™ is the competitive reagent.
FIGS. 10A and B illustrates a comparison of VERITOPE™ (FIG. 10A) and anti-idiotype (FIG. 10B) ELISA binding.

natalizumab [4] = details: 1,000 or 10,000 fold molar excess of peptide; Jeko-1 cells
Excerpt: (§1) Jeko-1 cells, expressing CD49d, were used as a model.
as §1

natalizumab [5] = assay: Anti-idiotype ELISA versus VERITOPE ELISA on heat-inactivated natalizumab; format: binding; details: natalizumab heat-inactivated at 60° C.
complement = details: in vitro; cited from earlier work
Fc gamma receptors = details: like other IgG4 antibodies; cited from earlier work
integrin = molecular target: T1, integrin (Homo sapiens, UniProt P13612); details: at the end of 4 weeks, cited from earlier work
T1 construct: host or cells: cells of treated patients

[6] = tested on: Jeko-1 cells, expressing CD49d; assay: Flow cytometry: binding of heat-inactivated natalizumab to Jeko-1 cells; format: cell-based; details: 60° C. for various periods of time; bivalent and arm-exchanged (bispecific) natalizumab

ACPKNPNKFCGGG [SEQ ID NO: 4]
specific binding to natalizumab-coated wells (natalizumab [1]): specific binding to natalizumab

ACPKNPSKFCGGG{Lys(Biotin)} with Cys2-Cys10 bridge [NTZ-07-Bio]
selectivity for natalizumab over other therapeutic monoclonal antibodies (natalizumab [2]): selectively captures natalizumab in presence of other circulating human IgG

ACPMNESKFCGGG [SEQ ID NO: 1]
specific binding to natalizumab-coated wells (natalizumab [1]): specific binding to natalizumab

ACPSNPSKFCGGG [SEQ ID NO: 2]
specific binding to natalizumab-coated wells (natalizumab [1]): specific binding to natalizumab

Ac-ACPMNESKFCGGG{Lys(Biotin)} with Cys2-Cys10 bridge [NTZ-01-Bio]
region of natalizumab bound (natalizumab [3]): bind to the same region of natalizumab, most likely the antigen binding site
inhibition of natalizumab binding to its cell surface target (natalizumab [4]): can inhibit binding of natalizumab to its cell surface target
ability of capture reagent to distinguish active and inactive drug (natalizumab [5]): selectively distinguishes & quantifies active drug

IYAAYPPCPQNLSKFCRHSSSPGGGG [SEQ ID NO: 16]
specific binding to natalizumab-coated wells (natalizumab [1]): specific binding to natalizumab

QTLNHSWLHTFIGGG [SEQ ID NO: 13]
specific binding to natalizumab-coated wells (natalizumab [1]): specific binding to natalizumab

natalizumab
ability to fix complement (complement): lack of ability to fix complement
binding to Fc gamma receptors (Fc gamma receptors): reduced binding to Fc gamma receptors
integrin saturation by natalizumab (integrin; Hyams et al. 2007, crohn disease in adolescents): less than 40%
integrin saturation by natalizumab (integrin; Miller et al. 2003, relapsing multiple sclerosis): 80%
effect of heat-inactivation on binding to cellular target [6]: alters natalizumab binding to its cellular target

From patent US11680948B2 (ABREOS BIOSCIENCES, INC., priority 2016, dated 2023)
